Measurements from patent US20200000842A1, “COMPOSITION AND METHOD FOR IMPROVING QOL WITH MOLECULAR HYDROGEN IN CANCER- HAVING SUBJECT” (MiZ Company Limited, priority 2018, published 2020).

What was measured:
[1] = system: patient with terminal systemic metastatic cancer; details: person, 3 times about 2 hours each over about 1 month
Method: A patient with terminal systemic metastatic cancer (person) breathed a mixed gas of hydrogen and air using a gaseous hydrogen inhalation apparatus (MHG-2000α (registered trademark); MiZ Company Limited, Kanagawa, Japan) total 3 times for about 2 hours each time over about 1 month before death of the patient. The hydrogen concentration in MHG-2000α is about 6 to 7% by volume (hydrogen generation rate: about 140 ml/min).

[2] = system: patient with stage 4 terminal pancreatic cancer
Method: A patient with stage 4 terminal pancreatic cancer (person) breathed a mixed gas of hydrogen and air using a gaseous hydrogen inhalation apparatus (MHG-2000α (registered trademark); MiZ Company Limited) for about 1 to 3 hours per day over about 8 months. The hydrogen concentration in MHG-2000α is about 6 to 7% by volume (hydrogen generation rate: about 140 ml/min).

[3] = system: patient with terminal pancreatic cancer; details: person
Method: A patient with terminal pancreatic cancer (person) breathed a mixed gas of hydrogen and air using a gaseous hydrogen inhalation apparatus (MHG-2000α (registered trademark); MiZ Company Limited) over about 4 months. Here, the mixed gas of hydrogen and air was breathed twice a week (duration each time: 1 to 3 hours) over first 2 months and for about 24 hours per day over subsequent 2 months. The hydrogen concentration in MHG-2000α is about 6 to 7% by volume (hydrogen generation rate: about 140 ml/min).

[4] = normal temperature and normal pressure; cited from earlier work
[5] = about 6 to 7% by volume hydrogen
[6] = about 6 to 7% by volume hydrogen over about 4 months

[HH] [hydrogen gas, molecular hydrogen]
appetite [1, 5]: recovered | complexion [1, 5]: improved | cancerous pain ([1]; mixed gas of hydrogen and air, about 6 to 7% by volume, no opioid): reduced | blood level of CA19-9 (pancreatic cancer marker) ([2]; about 6 months after the breathing of hydrogen gas, FIG. 1): sharply decreased | physical fatigue ([2]; after the first breathing): hardly complained about physical fatigue | survival after being told life expectancy of 3 months ([2]; person, stage 4, breathing about 1 to 3 hours per day): ≥ 9 months | growth of cancer by CT imaging examination once a month ([2]; person, about 6 to 7% by volume hydrogen, about 1 to 3 hours per day over about 8 months): no tendency of growth of cancer | appetite [3, 6]: had appetite | insomnia [3, 6]: improved in insomnia | cancerous pain ([3]; about 6 to 7% by volume hydrogen over about 4 months (twice a week 1 to 3 hours for 2 months, then about 24 hours per day for 2 months), no opioid): did not complain about pain or oppression | solubility in water [4]: about 1.6 ppm
